Read-outs that look alike come from different tables or passages of the source.
Legend:
Experiment in all cases: MIC determination by two-fold serial dilution in 96-well microtiter plates
Assay type in all cases: cell-based
[1] = system: Pseudomonas aeruginosa (PAO1-WT)
Experimental: (§1) For the compounds above, respective minimum inhibitory concentration (MIC) values against the Gram-positive S. aureus, E. faecalis, Gram-negative E. coli and P. aeruginosa were determined, respectively, by standard methods. […] Cell viability was verified by serial dilution and plating on MH agar. Both aqueous and fresh media positive controls were performed for each trial. Overnight bacterial cultures of Staphylococcus aureus (SH1000), Enterococcus faecalis (OG1RF), Escherichia coli (MC4100), and Pseudomonas aeruginosa (PAO1-WT) were grown in Mueller-Hinton broth at 37° C., with all but E. faecalis under shaking Overnight cultures were diluted to approximately 10^6 cfu/mL as determined by OD measurement at 640 nm and plating on MH agar.
(§2) Each compound was serially diluted two-fold with water from 1 mM down to 1 μM yielding twelve dilutions per compound. In triplicate, 100 µL of each dilution were pipetted into the appropriate well of a 96-well microtiter plate, and then […] of overnight bacterial culture diluted to ca. 10^6 cfu/mL were inoculated into each well. Microtiter plates were incubated at 37° C. for 72 hours. Up to seven compounds were tested against one bacterial species at twelve decreasing concentrations per 96-well plate.

[2] = system: Enterococcus faecalis (OG1RF)
Experimental: as §1, §2

[3] = system: Staphylococcus aureus (SH1000)
Experimental: as §1, §2

[4] = system: Escherichia coli (MC4100); settings: for MIC E. coli: Table 2, trisamine compounds; for MIC: Escherichia coli
Experimental: as §1, §2

[5] = Table 2, trisamine compounds, read-out: MIC P aeruginosa
[6] = Table 2, trisamine compounds, read-out: MIC E faecalis
[7] = Table 2, trisamine compounds, read-out: MIC S. aureus
[8] = Pseudomonas aeruginosa, PAO1, Table 1, 37° C., 72 hours, read-out: MIC, Gram negative P. aeruginosa
[9] = Enterococcus faecalis, Table 1, 37° C., 72 hours, read-out: MIC, Gram positive E. faecalis
[10] = Staphylococcus aureus, Table 1, 37° C., 72 hours, read-out: MIC, Gram positive S. aureus
[11] = 72 h, read-out: MIC, Gram negative E. coli
[12] = Table 1, 37° C., 72 hours, read-out: MIC, Gram negative E. coli

SMILES	MIC [1, 8] [µM]	MIC [2, 9] [µM]	MIC [3, 10] [µM]	MIC [4, 11] [µM]	further results
CCCCCCCCCC[N+](C)(C)CCN(C)CC[N+](C)(C)CCCCCCCCCC.[Br-].[Br-] [10, 2, 0, 2, 10]					MIC [1, 5]: 32 µM; MIC [2, 6]: 8 µM; MIC [3, 7]: 2 µM; MIC E. coli [4]: 8 µM
CCCCCCCCCCCC[N+](C)(C)CCN(C)CC[N+](C)(C)CCCCCCCCCCCC.[Br-].[Br-] [12, 2, 0, 2, 12]					MIC [1, 5]: 4 µM; MIC [2, 6]: 2 µM; MIC [3, 7]: 1 µM; MIC E. coli [4]: 1 µM
CCCCCCCCCCCCCC[N+](C)(C)CCN(C)CC[N+](C)(C)CCCCCCCCCCCCCC [14, 2, 0, 2, 14]					MIC ([1]; Pseudomonas aeruginosa, PAO1, Table 2, trisamine compounds, read-out: MIC P aeruginosa): 32 µM; MIC ([2]; Enterococcus faecalis, Table 2, trisamine compounds, read-out: MIC E faecalis): 2 µM; MIC ([3]; Staphylococcus aureus, Table 2, trisamine compounds, read-out: MIC S. aureus): 2 µM; MIC ([4]; read-out: MIC E. coli): 4 µM
CCCCCCCC[N+](C)(C)CC[N+](C)(C)CCCCCCCC [(8, 2, 8)]	500	500	32	250	
CCCCCCCCCC[N+](C)(C)CCN(C)C [(10, 2, 0)]	250	250	63		MIC [4, 12]: 250 µM
CCCCCCCCCC[N+](C)(C)CC[N+](C)(C)CCCCCCCC [(10, 2, 8)]	125	63	8	63	
CCCCCCCCCC[N+](C)(C)CC[N+](C)(C)CCCCCCCCCC [(10, 2, 10)]	8	8	2	16	
CCCCCCCCCCC[N+](C)(C)CC[N+](C)(C)CCCCCCCCCC [(11, 2, 10)]				4	MIC ([1]; Pseudomonas aeruginosa, PAO1, 72 h, read-out: MIC, Gram negative P. aeruginosa): 4 µM; MIC ([2]; Enterococcus faecalis, 72 h, read-out: MIC, Gram positive E. faecalis): 4 µM; MIC ([3]; Staphylococcus aureus, 72 h, read-out: MIC, Gram positive S. aureus): 1 µM
CCCCCCCCCCCC[N+](C)(C)CCN(C)C [(12, 2, 0)]	250	63	32		MIC [4, 12]: 63 µM
CCCCCCCCCCCC[N+](C)(C)CC[N+](C)(C)CCCCCCCC [(12, 2, 8)]	4	4	1	4	
CCCCCCCCCCCC[N+](C)(C)CC[N+](C)(C)CCCCCCCCCC [(12, 2, 10)]	2	2	1	2	
CCCCCCCCCCCC[N+](C)(C)CC[N+](C)(C)CCCCCCCCCCCC [(12, 2, 12)]	4	1	1	2	
CCCCCCCCCCCCCC[N+](C)(C)CCN(C)C [(14, 2, 0)]	125	8	2		MIC [4, 12]: 16 µM
CCCCCCCCCCCCCC[N+](C)(C)CC[N+](C)(C)CCCCCCCC [(14, 2, 8)]	4	2	1	2	
CCCCCCCCCCCCCC[N+](C)(C)CC[N+](C)(C)CCCCCCCCCC [(14, 2, 10)]	4	1	4	2	
CCCCCCCCCCCCCC[N+](C)(C)CC[N+](C)(C)CCCCCCCCCCCC [(14, 2, 12)]	8	2	1	2	
CCCCCCCCCCCCCC[N+](C)(C)CC[N+](C)(C)CCCCCCCCCCCCCC [(14, 2, 14)]	32	2	4	4	
CCCCCCCCCCCCCCCC[N+](C)(C)CCN(C)C [(16, 2, 0)]	16	16	1		MIC [4, 12]: 16 µM

SMILES	MIC [1, 8] [µM]	MIC [2, 9] [µM]	MIC [3, 10] [µM]	MIC [4, 11] [µM]	further results
CCCCCCCCCCCCCCCC[N+](C)(C)CC[N+](C)(C)CCCCCCCC [(16, 2, 8)]	4	2	2	2	
CCCCCCCCCCCCCCCC[N+](C)(C)CC[N+](C)(C)CCCCCCCCCC [(16, 2, 10)]	32	4	4	8	
CCCCCCCCCCCCCCCC[N+](C)(C)CC[N+](C)(C)CCCCCCCCCCCC [(16, 2, 12)]	32	4	8	8	
CCCCCCCCCCCCCCCC[N+](C)(C)CC[N+](C)(C)CCCCCCCCCCCCCC [(16, 2, 14)]	63	2	8	16	
CCCCCCCCCCCCCCCC[N+](C)(C)CC[N+](C)(C)CCCCCCCCCCCCCCCC [(16, 2, 16)]	63	8	8	32	
CCCCCCCCCCCCCCCCCC[N+](C)(C)CCN(C)C [(18, 2, 0)]		4	2		MIC ([1]; Table 1, 37° C., 72 hours, read-out: MIC, Gram negative P. aeruginosa): 63 µM; MIC [4, 12]: 63 µM
CCCCCCCCCCCCCCCCCC[N+](C)(C)CC[N+](C)(C)CCCCCCCC [(18, 2, 8)]	32	2	2	8	
CCCCCCCCCCCCCCCCCC[N+](C)(C)CC[N+](C)(C)CCCCCCCCCC [(18, 2, 10)]	32	2	4	16	
CCCCCCCCCCCCCCCCCC[N+](C)(C)CC[N+](C)(C)CCCCCCCCCCCC [(18, 2, 12)]	32	4	4	16	
CCCCCCCCCCCCCCCCCC[N+](C)(C)CC[N+](C)(C)CCCCCCCCCCCCCC [(18, 2, 14)]	63	16	8	16	
CCCCCCCCCCCCCCCCCC[N+](C)(C)CC[N+](C)(C)CCCCCCCCCCCCCCCC [(18, 2, 16)]	63	32	16	32	
CCCCCCCCCCCCCCCCCC[N+](C)(C)CC[N+](C)(C)CCCCCCCCCCCCCCCCCC [(18, 2, 18)]	500	63	32	250	
CCCCCCCCCCCCCCCCCCCC[N+](C)(C)CCN(C)C [(20, 2, 0)]	125	4	4		MIC [4, 12]: 63 µM
CCCCCCCCCCCCCCCCCCCC[N+](C)(C)CC[N+](C)(C)CCCCCCCC [(20, 2, 8)]	32	4	4	16	
CCCCCCCCCCCCCCCCCCCC[N+](C)(C)CC[N+](C)(C)CCCCCCCCCC [(20, 2, 10)]	16	16	4	16	
CCCCCCCCCCCCCCCCCCCC[N+](C)(C)CC[N+](C)(C)CCCCCCCCCCCC [(20, 2, 12)]	63	4	8	32	
CCCCCCCCCCCCCCCCCCCC[N+](C)(C)CC[N+](C)(C)CCCCCCCCCCCCCC [(20, 2, 14)]	63	16	8	16	

— US20160278375A1, “BISCATIONIC AND TRISCATIONIC AMPHIPHILES AS ANTIMICROBIAL AGENTS” (Temple University of the Commonwealth System of Higher …, priority 2013, published 2016)
